Read-outs that look alike come from different tables or passages of the source.
Experiments:
[1] = room temperature; suspension stirred 30 minutes with excess solid
[2] = 25° C./60% rh
[3] = DVS; for removal of water on drying (in words): ten hours of nitrogen purge at room temperature
Method: DVS measurements are typically performed at 25° C. with an SPS11-100n “Sorptions Prüfsystem” from ProUmid (formerly “Projekt Messtechnik”), August-Nagel-Str. 23, 89079 Ulm (Germany).

[4] = room temperature; purified/de-ionized water; vigorously agitated and briefly sonicated
Method: 2.535 ml of purified/de-ionized water (for instance water for chromatography) is added to the solid using an adjustable volumetric pipette. The mixture is vigorously agitated at room temperature and briefly sonicated.

[5] = Water content of the sample before DVS (TG-FTIR mass loss or Karl Fischer titration)
Method: Thermogravimetric measurements were carried out with a Netzsch Thermo-Microbalance TG 209 coupled to a Bruker FTIR Spectrometer Vector 22 (sample pans with a pinhole, N2 atmosphere, heating rate 10 K/min).
A sample of crystalline monosodium salt according to at least one of the previous examples is investigated by thermogravimetry coupled with infrared spectroscopy (TG-FTIR). Thermogravimetric measurements were done with a sample mass of about 6 mg. […] The same sample is now examined by dynamic vapor sorption analysis (DVS). About 20 mg of sample are placed put into an aluminum sample pan. Humidity change rates of 5% per hour were used. […] The sample was placed on an aluminum holder on top of a microbalance and allowed to equilibrate at 50% RH before starting the pre-defined humidity program in the following way: • (1) 2 hours at 50% relative humidity • (2) 50→0% relative humidity (5%/hour); 10 hours at 0% relative humidity • (3) 0→75% relative humidity (5%/hour); 5 hours at 75% relative humidity • (4) 75→0% relative humidity (5%/hour); 10 hours at 0% relative humidity • (5) 0→50% relative humidity (5%/hour); 2 hours at 50% relative humidity
A sample of crystalline calcium salt of MTHF is examined by Karl Fischer titration to evaluate the water content. […]

[6] = 40° C./75% rh

Structure (SMILES)	solubility in water [1] [µg/mL]	5-methyl-(6S)-tetrahydrofolic acid content ([2]; 0 months) [% w/w]	5-methyl-(6S)-tetrahydrofolic acid content ([2]; 3 months) [% w/w]	5-methyl-(6S)-tetrahydrofolic acid content ([2]; 6 months) [% w/w]	5-methyl-(6S)-tetrahydrofolic acid content ([2]; 9 months) [% w/w]	5-methyl-(6S)-tetrahydrofolic acid content ([2]; 12 months) [% w/w]	removal of water on drying (in words) [3]	kinetic solubility in water [4]	water content (Karl Fischer titration) ([5]; sample before DVS) [%]	5-methyl-(6S)-tetrahydrofolic acid content ([6]; 0 months) [% w/w]	5-methyl-(6S)-tetrahydrofolic acid content ([6]; 3 months) [% w/w]	5-methyl-(6S)-tetrahydrofolic acid content ([6]; 6 months)	5-methyl-(6S)-tetrahydrofolic acid content ([6]; 9 months) [% w/w]	5-methyl-(6S)-tetrahydrofolic acid content ([6]; 12 months) [% w/w]	hygroscopicity compared with the calcium salt (in words) ([3]; relative humidity 20% to 75%)	removal of water on drying (in words) ([3]; listed as crystalline monosodium salt, monosodium salt)	removal of water on drying (in words) ([3]; listed as crystalline sodium salt of 5-methyl-(6S)-tetrahydrofolic acid, monosodium salt)	mass loss at 200° C. (TG-FTIR), essentially the water content ([5]; after drying in air at room temperature, sample mass about 6 mg)
CN1c2c([nH]c(N)nc2=O)NC[C@@H]1CNc1ccc(C(=O)N[C@@H](CCC(=O)[O-])C(=O)[O-])cc1.[Ca+2] [calcium salt of 5-methyl-(6S)-tetrahydrofolic acid]	7100	80.7	79.0	77.7	78.5	77.9	less than half of the water can be removed	smaller than 10 mg per 1 ml of water	12.4	80.7	78.5	78.0 % w/w	78.8	77.8				
CN1c2c(nc(N)[nH]c2=O)NC[C@@H]1CNc1ccc(C(=O)N[C@@H](CCC(=O)[O-])C(=O)O)cc1.[Na+] [5-methyl-(6S)-tetrahydrofolic acid monosodium salt]		94.7	93.0	94.2	95.6	94.1				94.7	92.7	(81.8)^1 % w/w	94.8	92.9	less hygroscopic	all the water of the sample is essentially removed	water can essentially be removed	about 1.3%

Reference: patent US12048700B2 (Merck Patent GmbH, priority 2017, dated 2024)
